These results are taken from patent publication US20240034729A9, “HETEROCYCLIC COMPOUND, INTERMEDIATE, PREPARATION METHOD THEREFOR AND APPLICATION THEREOF” (WUHAN LL SCIENCE AND TECHNOLOGY DEVELOPMENT CO., LTD., priority 2018, published 2024).

The structures appear in SMILES notation. A value given as a limit tells only on which side of the number the result lay.

A short description of data set [1]: In vitro metabolic stability, rat liver microsome. The class given is in vitro ADME. Particulars: liver microsomes, 1 mg/mL liver microsome protein, 37° C., NA = essentially not metabolized, read-out: T1/2 in rat liver microsome. The procedure:
(§1) The in vitro metabolic stability of the compounds disclosed herein was determined through incubation of liver microsomes of various species. […] At each time point, 100 μL of the reaction mixture was added into a centrifuge tube containing 400 μL of internal standard working solution (containing a 200 ng/mL solution of dexamethasone, diclofenac, tolbutamide and labetalol in acetonitrile) precooled at 0° C. so as to terminate the reaction, and the mixture was then centrifuged at 10,000 g for 10 min at 4° C. The supernatant was collected for LC-MS assay so as to obtain the values of in vitro metabolic half-life of the test compounds in liver microsomes of various species.
On the technique in general: Liver microsomes are a subcellular fraction often used to study metabolism.

Data set [2] is described as follows: In vitro cytotoxicity assay, CCK-8 method. The class given is cell-based. The conditions noted are these: human, HepG2 cells. The procedure:
In vitro cytotoxicity assay for the compounds disclosed herein was performed in HepG2 cells using the CCK-8 method. HepG2 cells (Beina Bio) in the logarithmic growth phase were collected, the concentration of cell suspension was adjusted, and then the cells were plated on a 96-well cell culture plate at 50,000 cells/well. The cells were then incubated overnight in a cell incubator of 5% […] at 37° C., and after 80-90% cell confluence was achieved, test compounds or vehicle (DMSO) at various concentration gradients were added after medium change. The plate was incubated in a cell incubator of 5% […] at 37° C. for 48 h. After the treatment, the medium in the plate was discarded. The plate was washed twice with PBS, added with CCK-8 working solution (Beyotime) at 100 μL per well, and then incubated at 37° C. for 1.5 h away from light. Absorbance at OD450nm was measured for each well on a microplate reader, and CC50 value of each compound was analyzed and calculated.
(Tetrazolium assays rely on reduction of a dye to a coloured formazan, in cell work by metabolically active cells.)

Data set [3] is described as follows: In vitro metabolic stability, guinea pig liver microsome. Type of data set: in vitro ADME. The conditions noted are these: liver microsomes, 1 mg/mL liver microsome protein, 37° C., NA = essentially not metabolized, read-out: T1/2 in guinea pig liver microsome. On the procedure:
The in vitro metabolic stability of the compounds disclosed herein was determined through incubation of liver microsomes of various species. A proper amount of test compound was added into a liver microsome reaction system (1 mg/mL liver microsome protein, 25 U/mL glucose-6 phosphate dehydrogenase, 1 mM NADP, 6 mM D-glucose 6-phosphate and 5 mM MgCl2), and then the mixture was incubated in a water bath kettle at 37° C. to start the reaction. At each time point, 100 μL of the reaction mixture was added into a centrifuge tube containing 400 μL of internal standard working solution (containing a 200 ng/mL solution of dexamethasone, diclofenac, tolbutamide and labetalol in acetonitrile) precooled at 0° C. so as to terminate the reaction, and the mixture was then centrifuged at 10,000 g for 10 min at 4° C. The supernatant was collected for LC-MS assay so as to obtain the values of in vitro metabolic half-life of the test compounds in liver microsomes of various species.

The nature of data set [4]: In vitro metabolic stability, human liver microsome. The class given is in vitro ADME. The conditions noted are these: liver microsomes, 1 mg/mL liver microsome protein, 37° C., NA = essentially not metabolized, read-out: T1/2 in human liver microsome. The procedure:
as §1

Data set [5] concerns the target hP2X2/3 (heterodimeric receptors formed by human purinergic P2X receptors subtype 2 and subtype 3) (Homo sapiens (Human), UniProt P56373+Q9UBL9). Kind of data set: FLIPR calcium assay, hP2X2/3 expressed in HEK293 cells (P2X2/3 receptor selectivity). The class given is cell-based. The conditions noted are these: for IC50: HEK293 cells expressing hP2X2/3, agonist BZ-ATP 5 μM, unit inferred.

The target in data set [6] is hP2X3 (human purinergic P2X receptor subtype 3) (Homo sapiens (Human), UniProt P56373). Put plainly: FLIPR calcium assay, hP2X3 expressed in HEK293 cells. Particulars: read-out: P2X3 IC50. Type of data set: cell-based.
Chain of hP2X3 (human purinergic P2X receptor subtype 3) (P56373 whole entry): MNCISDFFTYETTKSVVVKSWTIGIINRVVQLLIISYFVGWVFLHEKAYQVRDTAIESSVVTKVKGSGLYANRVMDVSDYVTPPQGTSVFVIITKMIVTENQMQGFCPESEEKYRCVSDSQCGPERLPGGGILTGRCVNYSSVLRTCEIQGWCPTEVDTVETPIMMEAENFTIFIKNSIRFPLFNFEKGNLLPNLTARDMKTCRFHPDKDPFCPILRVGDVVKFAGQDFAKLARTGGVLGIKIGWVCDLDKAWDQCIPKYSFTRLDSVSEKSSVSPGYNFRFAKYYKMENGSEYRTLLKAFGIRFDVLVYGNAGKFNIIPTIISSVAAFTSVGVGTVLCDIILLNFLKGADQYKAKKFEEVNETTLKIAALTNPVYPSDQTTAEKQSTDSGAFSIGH

Chain of hP2X2/3 (heterodimeric receptors formed by human purinergic P2X receptors subtype 2 and subtype 3) (P56373 whole entry): as above
Chain of hP2X2/3 (heterodimeric receptors formed by human purinergic P2X receptors subtype 2 and subtype 3) (Q9UBL9 whole entry): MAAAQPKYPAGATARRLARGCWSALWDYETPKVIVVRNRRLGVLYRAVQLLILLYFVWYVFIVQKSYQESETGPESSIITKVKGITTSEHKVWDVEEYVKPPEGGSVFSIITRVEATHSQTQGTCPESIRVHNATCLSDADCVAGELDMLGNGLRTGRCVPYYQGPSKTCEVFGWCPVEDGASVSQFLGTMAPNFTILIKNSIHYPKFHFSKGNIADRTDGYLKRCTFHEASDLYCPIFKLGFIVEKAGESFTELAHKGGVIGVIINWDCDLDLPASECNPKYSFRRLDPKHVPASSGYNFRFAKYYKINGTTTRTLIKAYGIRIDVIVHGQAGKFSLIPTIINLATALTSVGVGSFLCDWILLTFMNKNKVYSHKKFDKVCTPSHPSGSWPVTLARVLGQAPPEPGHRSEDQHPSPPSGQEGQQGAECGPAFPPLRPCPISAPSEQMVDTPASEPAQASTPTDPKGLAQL

As usually defined, the CC50 is the concentration that lowers cell viability or growth by half. The low end stands for greater toxicity to the cells, the high end for lower toxicity to the cells. With `COC(=O)N1CCO[C@@H](Cc2c(-c3c(F)cc(-n4ccnc4)cc3F)nc3cc(C)ccn23)C1` [Compound 5, methyl (S)-2-((2-(2,6-difluoro-4-(1H-imidazol-1-yl)phenyl)-7-methylimidazo[1,2-a]pyridin-3-yl)methyl)morpholine-4-carboxylate], the half-life in data set [1] was determined as 0.622 h; in data set [3], 0.794 h; in data set [4], 10.8 h. The cytotoxic concentration (CC50) at 48 h in data set [2] came out at 72 µM.

On to `COC(=O)N1CCO[C@@H](Cc2c(-c3c(F)cc(-c4ncco4)cc3F)nc3cc(C)ccn23)C1` [Compound 10, methyl (S)-2-((2-(2,6-difluoro-4-(oxazol-2-yl)phenyl)-7-methylimidazo[1,2-a]pyridin-3-yl)methyl)morpholine-4-carboxylate], for which the results for the half-life in data set [1], in data set [3] and in data set [4] were 0.513 h, 0.225 h and 3.71 h, respectively. In data set [2], this molecule had a CC50 at 48 h of 15.8 µM.

Consider `COC(=O)N1CCO[C@@H](Cc2c(-c3c(F)cc(-c4ccco4)cc3F)nc3cc(C)ccn23)C1` [Compound 11, methyl (S)-2-((2-(2,6-difluoro-4-(furan-2-yl)phenyl)-7-methylimidazo[1,2-a]pyridin-3-yl)methyl)morpholine-4-carboxylate], for which the half-life in data set [1] was 0.0942 h; in data set [3], 0.0712 h; in data set [4] it was 2.52 h. In data set [2], this molecule yielded a CC50 at 48 h of 79.4 µM.

With `COC(=O)N1CCO[C@@H](Cc2c(-c3c(F)cc(-c4cccs4)cc3F)nc3cc(C)ccn23)C1` [Compound 12, methyl (S)-2-((2-(2,6-difluoro-4-(thiophen-2-yl)phenyl)-7-methylimidazo[1,2-a]pyridin-3-yl)methyl)morpholine-4-carboxylate], the results for the half-life in data set [1], in data set [3] and in data set [4] were 0.13 h, 0.126 h and 1.53 h, respectively. In data set [2], this molecule registered a 50% cytotoxic concentration (CC50) at 48 h of 52.7 µM.

As to `COC(=O)N1CCO[C@@H](Cc2c(-c3c(F)cc(-c4cccn4C)cc3F)nc3cc(C)ccn23)C1` [Compound 13, methyl (S)-2-((2-(2,6-difluoro-4-(1-methyl-1H-pyrrol-2-yl)phenyl)-7-methylimidazo[1,2-a]pyridin-3-yl)methyl)morpholine-4-carboxylate], the half-life in data set [1] was found to be 0.0373 h; in data set [3], 0.0375 h; in data set [4], 1.03 h. Besides, half-maximal cytotoxicity in data set [2] (CC50 at 48 h) was put at 66.5 µM.

For orientation: IC50 means the concentration at which inhibition is half-maximal. Take `COC(=O)N1CCO[C@@H](Cc2c(-c3c(F)cc(NC(=O)CCC(=O)O)cc3F)nc3cc(C)ccn23)C1` [Compound 25, (S)-4-((3,5-difluoro-4-(3-((4-(methoxycarbonyl)morpholin-2-yl)methyl)-7-methylimidazo[1,2-a]pyridin-2-yl)-phenyl)-amino)-4-oxobutanoic acid]: the half-life in data set [1] came out at 3.8 h; in data set [4] it was 4.97 h. The half-maximal cytotoxic concentration (CC50) at 48 h in data set [2] is more than 100 µM. The Folds of selectivity result in data set [5] was “A (key: A: folds of selectivity >1000; B: 200< folds of selectivity ≤1000; C: folds of selectivity ≤200)”. Also, the IC50 in data set [5] is more than 60 µM; in data set [6], less than 0.01 µM.

Turning to `CC(=O)N1CCO[C@@H](Cc2c(-c3c(F)cc(-n4ccnc4)cc3F)nc3cc(Cl)ccn23)C1` [Compound 158, (S)-1-(2-((7-chloro-2-(2,6-difluoro-4-(1H-imidazol-1-yl)phenyl)imidazo[1,2-a]pyridin-3-yl)methyl)morpholino)ethan-1-one], the CC50 at 48 h in data set [2] is more than 100 µM. Also, in data set [5], the Folds of selectivity result is recorded as “A (key: A: folds of selectivity >1000; B: 200< folds of selectivity ≤1000; C: folds of selectivity ≤200)” and the IC50 was more than 60 µM. Also, in data set [6], the IC50 is less than 0.01 µM.

In data set [2], `CC(=O)N1CCO[C@@H](Cc2c(-c3c(F)cc(-n4cccn4)cc3F)nc3cc(Cl)ccn23)C1` [Compound 160, (S)-1-(2-((7-chloro-2-(2,6-difluoro-4-(1H-pyrazol-1-yl)phenyl)imidazo[1,2-a]pyridin-3-yl)methyl)morpholino)ethan-1-one] showed a CC50 at 48 h of more than 100 µM.

In data set [2], `CC(=O)N1CCO[C@@H](Cc2c(-c3c(F)cc(-c4ncco4)cc3F)nc3cc(C)ccn23)C1` [Compound 163, (S)-1-(2-((2-(2,6-difluoro-4-(oxazol-2-yl)phenyl)-7-methylimidazo[1,2-a]pyridin-3-yl)methyl)morpholino)ethan-1-one] gave a CC50 at 48 h of more than 100 µM.

Take `CC(=O)N1CCO[C@@H](Cc2c(-c3c(F)cc(-c4nnc[nH]4)cc3F)nc3cc(Cl)ccn23)C1` [Compound 166]: in data set [2], the half-maximal cytotoxic concentration (CC50) at 48 h was more than 100 µM. Also, in data set [5], the Folds of selectivity result is listed as “A (key: A: folds of selectivity >1000; B: 200< folds of selectivity ≤1000; C: folds of selectivity ≤200)”. Besides, the concentration for half-maximal inhibition (IC50) in data set [5] is more than 60 µM; in data set [6], less than 0.01 µM.

Turning to `CC(=O)Nc1cc(F)c(-c2nc3cc(C)ccn3c2C[C@H]2CN(C(C)=O)CCO2)c(F)c1` [Compound 167, (S)—N-(4-(3-((4-acetylmorpholin-2-yl)methyl)-7-methylimidazo[1,2-a]pyridin-2-yl)-3,5-difluorophenyl)acetamide], the half-maximal cytotoxic concentration (CC50) at 48 h in data set [2] was more than 100 µM.

As for `CC(=O)N1CCO[C@@H](Cc2c(-c3c(F)cc(S(N)(=O)=O)cc3F)nc3cc(C)ccn23)C1` [Compound 173, (S)-4-(3-((4-acetylmorpholin-2-yl)methyl)-7-methylimidazo[1,2-a]pyridin-2-yl)-3,5-difluorobenzenesulfonamide], the half-life in data set [1] is 1.69 h; in data set [3], 10.8 h. In data set [2], this molecule showed a CC50 at 48 h of more than 200 µM. In addition, the Folds of selectivity in data set [5] came out at 18811. In addition, the IC50 in data set [5] turned out to be 33.9 µM; in data set [6] it was 0.0018 µM.

Regarding `CC(=O)N1CCO[C@@H](Cc2c(-c3c(F)cc(S(N)(=O)=O)cc3F)nc3cc(Cl)ccn23)C1` [Compound 174, (S)-4-(3-((4-acetylmorpholin-2-yl)methyl)-7-chloroimidazo[1,2-a]pyridin-2-yl)-3,5-difluorobenzenesulfonamide], the half-life in data set [1] amounted to 6.64 h; in data set [3], 18.5 h. Also, the CC50 at 48 h in data set [2] is more than 200 µM. Further, in data set [6], the IC50 came to 0.0016 µM.

Regarding `COC(=O)N1CCO[C@@H](Cc2c(-c3c(F)cc(S(C)(=O)=O)cc3F)nc3cc(C)ccn23)C1` [Compound 175, methyl (S)-2-((2-(2,6-difluoro-4-(methylsulfonyl)phenyl)-7-methylimidazo[1,2-a]pyridin-3-yl)methyl)morpholine-4-carboxylate], the half-life in data set [1], in data set [3] and in data set [4] was more than 0.5 h throughout. In data set [6], the 50% inhibitory concentration (IC50) is more than 10 µM.

Regarding `COC(=O)N1CCO[C@@H](Cc2c(-c3c(F)cc(S(N)(=O)=O)cc3Cl)nc3cc(C)ccn23)C1` [Compound 177, methyl (S)-2-((2-(2-chloro-6-fluoro-4-sulfamoylphenyl)-7-methylimidazo[1,2-a]pyridin-3-yl)methyl)morpholine-4-carboxylate], in data set [4], the half-life came out at 5.41 h. Moreover, the IC50 in data set [6] was 0.0011 µM.

Regarding `COC(=O)N1CCO[C@@H](Cc2c(-c3ccc(S(N)(=O)=O)cc3Cl)nc3cc(Cl)ccn23)C1` [Compound 178, methyl (S)-2-((7-chloro-2-(2-chloro-4-sulfamoylphenyl)imidazo[1,2-a]pyridin-3-yl)methyl)morpholine-4-carboxylate], in data set [4], the half-life came to 20.6 h. In data set [6], the IC50 is 0.0001 µM.

Regarding `COC(=O)N1CCO[C@@H](Cc2c(-c3ccc(S(N)(=O)=O)cc3C(F)(F)F)nc3cc(C)ccn23)C1` [Compound 189, methyl (S)-2-((7-methyl-2-(4-sulfamoyl-2-(trifluoromethyl)phenyl)imidazo[1,2-a]pyridin-3-yl)methyl)morpholine-4-carboxylate], the half-life in data set [4] was 2.41 h. For the same molecule, the IC50 in data set [6] worked out at 0.01 µM.
